Reference: PMC9570898, “Comparing Variants of the Cell-Penetrating Peptide sC18 to Design Peptide-Drug Conjugates” (Molecules, 2022)
No end group written: not given here.

Experiments:
HEK293 cells [1] = experiment: Cellular uptake by flow cytometry in HEK293 cells; assay type: cell-based, human; settings: 1 and 10 µM CF-labeled peptide, 30 min, 37 °C, serum-free medium, triplicate n = 3
Procedure: (§1) Monolayer cellular uptake was quantified using flow cytometry. Cells were seeded onto a 24-well plate (HeLa: 90,000, HEK293: 100,000 and MCF-7 130,000 cells per well) and grown to 80–90% confluency. Then, cells were incubated with the labeled peptides/conjugates in a serum-free medium at 37 °C for various incubation times, and subsequently washed twice with PBS and detached with indicator-free trypsin resuspended in an indicator-free serum-containing medium. The cell suspension was transferred into a 96-well FACS plate and fluorescence was then measured by a Guava easyCyte flow cytometer (Merck, Darmstadt, Germany).The blue laser was used for all measurements, FSC (1137–1538), SSC (3020–4086), Grn-B (647–875) and Red-B (694–939). Cellular autofluorescence of untreated control cells was subtracted.

[2] = Peptide interaction with anionic giant unilamellar vesicles; settings: 1 µM CF-labeled peptide, 30 min, room temperature, fluorescence microscopy, Oyster405 dye outflow
Procedure: A thin agarose layer is necessary to build GUVs. Therefore, 1% super low melting agarose was melted in deionized water by heating up in a microwave. Afterward, 200 µL were coated on a clean slide and dried at 50 °C for 30 min on a heating plate; 10 µL of respective lipid solution was added onto the agarose layer and subsequently distributed and dried for 1 h using an exicator under vacuum to get rid of the chloroform. For staining the lipid layer, 0.2 mol % Atto550 was added. Afterward, a sealing ring was added around the pink lipid film. Lipids were hydrated with dextran buffer (10 mM HEPES buffer (pH 7.4), 50 mM KCl, 50 mM NaCl and 1 mg/mL Dextran) containing 3 µL Oyster405 (Luminaris GmbH, Münster, Germany) encapsulating the blue dye. Slides were incubated for 2 h at RT. […] For fluorescence microscopy analysis, lipids were transferred into an eight-well Ibidi® plate; 40 µL of respective GUV solution was mixed with 1 µM peptide solutions and filled up to 100 µL with dextran buffer. […] Afterward, GUVs were analyzed using a BZ-X800E microscope (Keyence, Osaka, Japan) followed by image processing with ImageJ.
Figure 4 Peptide interaction with […] (GUVs) composed of DOPC/DOPE/DOPG (40:30:30); 1 µM solutions of sC18 variants were incubated with GUVs for 30 min and inspected using a fluorescence microscope (Keyence). […]

HeLa cells [3] = experiment: Fluorescence microscopy of intracellular distribution in HeLa cells; assay type: cell-based, human; settings: 10 µM CF-labeled peptide, 30 min, confocal fluorescence microscopy
Procedure: Cells were seeded into 8-well plates (HeLa cells 35,000 and HFF-1 25,000 cells per well, respectively) and grown to 80–90% confluency. Cells were treated with 10 μM CF- or dox-labeled peptides in a serum-free medium for 30 min at 37 °C. Ten minutes prior to the end of the incubation time, nuclei were stained with Hoechst33342. The peptide solution was removed, and cells were washed five times with PBS and covered with fresh medium including FBS. Microscopic analysis was performed using an inverse confocal TCS SP8 microscope (Leica Microsystems, Wetzlar, Germany), equipped with a 63× oil-immersion objective. Images were recorded with LAS X software (LAS_X_Core_3.7.6_25997, Leica Microsystems, Wetzlar, Germany). For the GUV analysis and the uptake of the peptide-drug conjugates the Keyence fluorescence tabletop microscope BZ-X800E (Keyence, Osaka, Japan), with a 60× oil immersion lens was used. Images were recorded with Keyence software (BZ-800X_Analyzer 1.1.1.8, Keyence, Osaka: Japan) and evaluated with Fiji.
Figure 6 Fluorescence microscope analysis of 5 µM conjugates after 30 min of incubation at 37 °C in HeLa and HFF-1 cells. Red: peptides coupled to red fluorophore Doxorubicin; blue: Hoechst 33342 nuclear stain; BF: brightfield to identify living cells; scale bar is 20 µm.

HeLa cells [4] = experiment: Cytotoxicity (resazurin) assay in HeLa cells; settings: 24 h, 25 µM peptide, resazurin assay
Procedure: For cell viability assay, cells were (15,000 HeLa, 17,000 MCF-7 and 12,000 HFF-1 cells per well) seeded onto a 96-well plate and grown to 80–90% confluency. Cells were incubated with several peptide concentrations in a serum-free growth medium for 24 h under standard growth conditions. For the positive control, cells were treated with 70% EtOH for 7 min. After washing with DPBS, resazurin solution (10% in serum-free media, v/v) was incubated with the cells for 1 h under standard growth conditions. The cell viability was determined relative to untreated cells by measurement of the resorufin product at 595 nm (λex = 550 nm) on a Tecan infinite M200 plate reader (Tecan Group AG, Männedorf, Switzerland).
Figure 2 (A,B): Cytotoxicity profiles of the peptides in HeLa and HEK-293 cells. Cells were cultured and incubated at pH 7.4 for 24 h with different concentrations of peptide solutions. Untreated cells served as negative control; cells treated with 70% ethanol as positive control. Values from the positive control were subtracted from all data, and the untreated cells were set to 100%; assays were performed with n = 3 in triplicate. (C): Flow cytometry analysis of HeLa or HEK-293 cells after incubating 1 and 10 µM peptide solutions for 30 min at 37 °C; assays were conducted in triplicate n = 3. (D): Confocal laser scanning microscopy analysis of 10 µM CF-labeled peptides after 30 min of incubation in HeLa cells. Green: CF-labeled peptides; blue: Hoechst 33342 nuclear stain; scale bar is 10 µm.
Figure 5 (A): Cytotoxicity assay using HFF-1 cells. Different PDC concentrations were incubated with the cells for 24 h at 37 °C and a resazurin assay was conducted. (B): Dose-response curves for peptide drug conjugates were obtained using the resazurin assay. For this, HeLa cells were treated with various conjugate concentrations (2.5–70 µM) for 24 h at 37 °C. (C): Quantification of PDC internalization in HeLa cells; 10 µM PDC solutions were incubated with cells for 30 min at 37 °C and cells were inspected using a flow cytometer; assays were conducted in triplicate n = 3.

HeLa cells [5] = experiment: Cellular uptake by flow cytometry in HeLa cells; assay type: cell-based, human; settings: 1 and 10 µM CF-labeled peptide, 30 min, 37 °C, serum-free medium, triplicate n = 3
Procedure: as §1

HEK293 cells [6] = experiment: Cytotoxicity (resazurin) assay in HEK293 cells; assay type: cell-based, human; settings: 24 h

## RLRKLLRKFLRK-NH2 [sC18*^R,L]
HEK293 cells [1]
  cellular uptake: highly significant and enhanced internalization
[2]
  interaction with anionic GUVs: strongest accumulation leading to membrane disruption events and complete dye outflow from the vesicles
HeLa cells [3]
  intracellular accumulation / uptake pattern: highly enriched all over the cytosol including uptake in the nuclei
HeLa cells [4]
  cell viability at 25 µM: ~35%
HeLa cells [5]
  cellular uptake: highly significant and enhanced internalization
HEK293 cells [6]
  concentration at which toxic effect started: 50 µM
